Test results: patent US10681909B2, “Herbicidal triazoles” (FMC Corporation, priority 2014, dated 2020)

Columns and labels:
[1] = test system: kochia; assay: Test A postemergence; format: in vivo, Kochia scoparia; settings: 0 to 100 scale (0 no effect, 100 complete control), approx. 10 d
Outline: (§1)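 Seeds sown in loam soil–sand blend received a directed preemergence soil spray of test chemical in non-phytotoxic solvent with surfactant; postemergence plants, 2 to 10 cm at one- to two-leaf stage, were sprayed with the same formulation. Injury visually rated versus untreated controls after ~10 d in greenhouse, 0–100 scale.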

[2] = test system: galium; assay: Test A postemergence; format: in vivo, Galium aparine; settings: 0 to 100 scale (0 no effect, 100 complete control), approx. 10 d
Outline: as §1

[3] = test system: foxtail, green; assay: Test D preemergence; format: in vivo, Setaria viridis; settings: for Plant response rating (0 to 100), Foxtail, Green: 16 g ai/ha, 0 is no effect, 100 is complete control; for Plant response rating: Foxtail, Green: scale 0 to 100
Excerpt: (§2) Seeds of plant species selected from bluegrass (annual bluegrass, Poa annua), blackgrass (Alopecurus myosuroides), canarygrass (Phalaris minor), chickweed (common chickweed, Stellaria media), galium (catchweed bedstraw, Galium aparine), bromegrass, down (downy bromegrass, Bromus tectorum), Russian thistle (Salsola kali), field poppy (Papaver rhoeas), field violet (Viola arvensis), foxtail, green (green foxtail, Setaria viridis), deadnettle (henbit deadnettle, Lamium amplexicaule), ryegrass, Ital. (Italian ryegrass, Lolium multiflorum), kochia (Kochia scoparia), lambsquarters (Chenopodium album), oilseed rape (Brassica napus), pigweed (Amaranthus retroflexus), chamomile (scentless chamomile, Matricaria inodora), speedwell (bird's-eye speedwell, Veronica persica), barley, spring (spring barley, Hordeum vulgare), wheat, spring (spring wheat, Triticum aestivum), buckwheat, wild (wild buckwheat, Polygonum convolvulus), wild mustard (Sinapis arvensis), oat, wild (wild oat, Avena fatua), radish, wild (wild radish, Raphanus raphanistrum), […]), barley, winter (winter barley, Hordeum vulgare), and wheat, winter (winter wheat, Triticum aestivum) were planted into a silt loam soil and treated preemergence with test chemicals formulated in a non-phytotoxic solvent mixture which included a surfactant. At the same time, these species were planted in pots containing Sunshine Redi-Earth® planting medium comprising spaghnum peat moss, vermiculite, starter nutrients and dolomitic limestone and treated with postemergence applications of the test chemicals formulated in the same manner. Plants ranged in height from 2 to 18 cm (1- to 4-leaf stage). Treated plants and controls were maintained in a controlled growth environment for 14 to 21 d after which time all species were compared to controls and visually evaluated. […] A dash (-) response means no test result.

[4] = test system: ragweed; assay: Test C preemergence; format: in vivo, Ambrosia elatior; settings: for Ragweed plant response rating (0 to 100): Preemergence, visual rating after 13 to 15 d; for Plant response rating (scale of 0 to 100 where 0 is no effect and 100 is complete control): Ragweed, preemergence
Excerpt: Seeds of plant species selected from blackgrass (Alopecurus myosuroides), ryegrass, Italian (Italian ryegrass, Lolium multiflorum), wheat (winter wheat, Triticum aestivum), galium (catchweed bedstraw, Galium aparine), corn (Zea mays), crabgrass, large (large crabgrass, Digitaria sanguinalis), foxtail, giant, (giant foxtail, Setaria faberii), johnsongrass (Sorghum halepense), lambsquarters (Chenopodium album), morningglory (Ipomoea coccinea), nutsedge, yellow (yellow nutsedge, Cyperus esculentus), pigweed (Amaranthus retroflexus), ragweed (common ragweed, Ambrosia elatior), soybean (Glycine max), barnyardgrass (Echinochloa crus-galli), oilseed rape (Brassica napus), waterhemp (common waterhemp, Amaranthus rudis), and velvetleaf (Abutilon theophrasti) were planted into a blend of loam soil and sand and treated preemergence with test chemicals formulated in a non-phytotoxic solvent mixture which included a surfactant. At the same time, plants selected from these crop and weed species and also chickweed (common chickweed, Stellaria media), oat, wild (wild oat, Avena fatua), and kochia (Kochia scoparia), were planted in pots containing Sunshine Redi-Earth® planting medium comprising spaghnum peat moss, vermiculite, starter nutrients and dolomitic limestone and treated with postemergence applications of test chemicals formulated in the same manner. Plants ranged in height from 2 to 18 cm (1- to 4-leaf stage) for postemergence treatments. […] A dash (-) response means no test result.

[5] = test system: bluegrass; assay: Test D preemergence; format: in vivo, Poa annua; settings: for Plant response rating (0 to 100), Bluegrass: 16 g ai/ha, 0 is no effect, 100 is complete control; for Plant response rating: Bluegrass: scale 0 to 100
Excerpt: as §2

[6] = test system: ragweed; assay: Test A postemergence; format: in vivo, Ambrosia elatior; settings: 0 to 100 scale (0 no effect, 100 complete control), approx. 10 d
Outline: as §1

[7] = test system: wheat, spring; assay: Test D preemergence; format: in vivo, Triticum aestivum; settings: for Plant response rating (0 to 100), Wheat, Spring: 16 g ai/ha, 0 is no effect, 100 is complete control; for Plant response rating: Wheat, Spring: scale 0 to 100
Excerpt: as §2

[8] = test system: wheat, winter; assay: Test D preemergence; format: in vivo, Triticum aestivum; settings: for Plant response rating (0 to 100), Wheat, Winter: 16 g ai/ha, 0 is no effect, 100 is complete control; for Plant response rating: Wheat, Winter: scale 0 to 100
Excerpt: as §2

[9] = test system: field poppy; assay: Test D preemergence; format: in vivo, Papaver rhoeas; settings: for Plant response rating (0 to 100), Field Poppy: 16 g ai/ha, 0 is no effect, 100 is complete control; for Plant response rating: Field Poppy: scale 0 to 100
Excerpt: as §2

[10] = test system: crabgrass, large; assay: Test A postemergence; format: in vivo, Digitaria sanguinalis; settings: Digitaria sanguinalis, post-emergence, 240 h, 0 to 100 scale (0 no effect, 100 complete control), approx. 10 d, read-out: Plant response rating, Crabgrass, Large
Outline: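 Loam/sand soil mix; compound in non-phytotoxic solvent + surfactant. Pre: directed soil spray right after planting seed. Post: potted plants 2–10 cm, 1–2 leaf stage, sprayed with same formulation.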

Row | SMILES | Plant response rating, Kochia ([1]; 125 g ai/ha) | Plant response rating, Galium ([2]; 125 g ai/ha) | Plant response rating (0 to 100), Foxtail, Green [3] | Plant response rating: Foxtail, Green ([3]; 62 g ai/ha) | Plant response rating: Foxtail, Green ([3]; 125 g ai/ha) | Ragweed plant response rating (0 to 100) ([4]; 31 g ai/ha) | Ragweed plant response rating (0 to 100) ([4]; 62 g ai/ha) | Plant response rating (scale of 0 to 100 where 0 is no effect and 100 is complete control) ([4]; 125 g ai/ha) | Plant response rating (scale of 0 to 100 where 0 is no effect and 100 is complete control) ([4]; 250 g ai/ha) | Plant response rating (0 to 100), Bluegrass [5] | Plant response rating: Bluegrass ([5]; 31 g ai/ha) | Plant response rating: Bluegrass ([5]; 62 g ai/ha) | Plant response rating: Bluegrass ([5]; 125 g ai/ha) | Plant response rating, Ragweed ([6]; 125 g ai/ha) | Plant response rating: Wheat, Spring ([7]; 62 g ai/ha) | Plant response rating: Wheat, Spring ([7]; 125 g ai/ha) | Plant response rating: Wheat, Winter ([8]; 62 g ai/ha) | Plant response rating: Wheat, Winter ([8]; 125 g ai/ha) | Plant response rating: Field Poppy ([9]; 62 g ai/ha) | Plant response rating: Field Poppy ([9]; 125 g ai/ha) | other results
1 | Fc1ccc(-c2nc(OCC(F)(F)F)n(Cc3ccnc(C(F)(F)F)c3)n2)cc1 [Compound 30] | 90 | 60 | 85 | 100 | 100 | 55 | 65 | 80 | 90 | 75 | 75 | 100 | 100 | 40 | 35 | 45 | 25 | 35 | 100 | 100 | Plant response rating, Kochia ([1]; 500 g ai/ha): 90; Plant response rating, Galium ([2]; 500 g ai/ha): 90; Plant response rating, Ragweed ([6]; 500 g ai/ha): 70; Plant response rating (0 to 100), Wheat, Spring [7]: 25; Plant response rating (0 to 100), Wheat, Winter [8]: 15; Plant response rating (0 to 100), Field Poppy [9]: 95
2 | CCOc1nc(-c2ccc(C(F)(F)F)cc2)nn1Cc1ccnc(C(F)(F)F)c1 [Compound 35, 4-[[5-ethoxy-3-[4-(trifluoromethyl)phenyl]-1H-1,2,4-triazole-1-yl]methyl]-2-(trifluoromethyl)pyridine] | 90 | 90 | 70 | 100 | 100 | 60 | 75 | 85 | 90 | 70 | 80 | 95 | 100 | 60 | 50 | 50 | 40 | 45 | 100 | 100 | Plant response rating, Kochia ([1]; 31 g ai/ha): 90; Plant response rating, Galium ([2]; 31 g ai/ha): 90; Plant response rating, Ragweed ([6]; 31 g ai/ha): 20; Plant response rating (0 to 100), Wheat, Spring [7]: 25; Plant response rating (0 to 100), Wheat, Winter [8]: 20; Plant response rating (0 to 100), Field Poppy [9]: 100
3 | CCOc1nc(-c2ccccc2)nn1Cc1ccnc(C(F)(F)F)c1 [Compound 27] | 90 | 80 | 95 | 100 | 100 | 50 | 50 | 98 | 98 | 20 | 55 | 85 | 100 | 50 | 20 | 35 | 30 | 30 | 100 | 100 | Plant response rating, Kochia ([1]; 500 g ai/ha): 90; Plant response rating, Galium ([2]; 500 g ai/ha): 90; Plant response rating, Ragweed ([6]; 500 g ai/ha): 70; Plant response rating (0 to 100), Wheat, Spring [7]: 15; Plant response rating (0 to 100), Wheat, Winter [8]: 25; Plant response rating (0 to 100), Field Poppy [9]: 95
4 | COc1nc(-c2ccc(Cl)cc2)nn1Cc1ccnc(C(F)(F)F)c1 [Compound 28] | 90 | 50 | 80 | 85 | 100 | – | – | – | – | 25 | 35 | 45 | 85 | 20 | 20 | 25 | 25 | 20 | 100 | 100 | Plant response rating, Kochia ([1]; 500 g ai/ha): 90; Plant response rating, Galium ([2]; 500 g ai/ha): 80; Plant response rating, Ragweed ([6]; 500 g ai/ha): 30; Plant response rating (0 to 100), Wheat, Spring [7]: 10; Plant response rating (0 to 100), Wheat, Winter [8]: 15; Plant response rating (0 to 100), Field Poppy [9]: 70
5 | CCOc1nc(-c2ccc(F)cc2)nn1Cc1ccnc(C(F)(F)F)c1 [Compound 8, 4-[[5-ethoxy-3-(4-fluorophenyl)-1H-1,2,4-triazol-1-yl]methyl]-2-(trifluoromethyl)pyridine] | – | – | – | 100 | 100 | 75 | 85 | 90 | 90 | – | 70 | 70 | 100 | – | 15 | 35 | 25 | 40 | 100 | 100 | Plant response rating: Foxtail, Green ([3]; 250 g ai/ha): 100; Plant response rating: Bluegrass ([5]; 250 g ai/ha): 100; pest or weed control at 125 g/ha ([10]; 125 g ai/ha): 100%; pest or weed control at 500 g/ha ([10]; 500 g ai/ha): 100%; Plant response rating: Wheat, Spring ([7]; 250 g ai/ha): 70; Plant response rating: Wheat, Winter ([8]; 250 g ai/ha): 65; Plant response rating: Field Poppy ([9]; 250 g ai/ha): 100
